# Assay results as given in US20230067159A1, “ROR-GAMMA-T INHIBITOR, PREPARATION METHOD THEREOF AND USE THEREOF” (priority 2020, published 2023).
# Molecular target: T1, RORγ (Homo sapiens, UniProt P51449)
# T1 construct: The concentration of B-RORγ LBD was 40 nM
# T1 sequence (P51449 269-508 limits assumed): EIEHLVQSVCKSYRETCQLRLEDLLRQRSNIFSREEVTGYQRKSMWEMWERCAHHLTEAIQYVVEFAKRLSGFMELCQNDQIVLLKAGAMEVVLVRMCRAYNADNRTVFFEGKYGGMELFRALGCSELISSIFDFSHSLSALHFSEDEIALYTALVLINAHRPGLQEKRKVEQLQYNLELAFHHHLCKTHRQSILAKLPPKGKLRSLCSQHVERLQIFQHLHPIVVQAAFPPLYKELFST
# Test: Fluorescence resonance energy transfer (FRET) test, B-RORγ LBD / Biotin-SRC1
# Type: biochemical
# Method: Biological Example 1 Fluorescence Resonance Energy Transfer (FRET) Test
# (1) Preparation of RORγ Test Buffer and 10 mM of DTT
# 100 mL of 1× Basic test buffer (HEPES (pH 7.4), 100 mM NaCl, 0.01% BSA) was prepared, and 154.25 mg of DTT was added. The mixture was well mixed.
# (2) Preparation of Compound with Gradient Concentration
# a. Standard compound was prepared: Standard compound was diluted with 100% DMSO to 2.5 mM, then diluted 3-fold with 11 serial dilutions to a final concentration of […];
# b. Test compound was prepared referring to the standard compound.
# (3) Preparation of 1× Protein Solution Mixture
# (§1) a. Preparation of the desired amount of 2× B-RORγ LBD/SA-APC protein mixture: The concentration of B-RORγ LBD was 40 nM, and the concentration of SA-APC was 20 nM. They were mixed by gently inversion, and incubated at room temperature for 15 minutes. Then 400 nM of biotin was added. The mixture was mixed by gently inversion, and incubated at room temperature for 10 minutes;
# as §1, with “b.” for “a.”, “Biotin-SRC1/SA-eu” for “B-RORγ LBD/SA-APC”, “Bioin-SRC1” for “B-RORγ LBD”, “SA-eu” for “SA-APC”, “200” for “400”
# c. The protein mixtures prepared in step a and step b were mixed at a ratio of 1:1, and incubated at room temperature for 5 minutes;
# d. 25 μL of the mixture from step c was added to the 384-well plate containing the test compound;
# e. The mixture was centrifuged at 1000 rpm for one minute;
# f. The mixture was incubated for 1 hour at room temperature.
# (4) Data Collection and Calculation
# After incubation at room temperature for 1 hour, the fluorescence values at 665 nm and 615 nm were measured with an EnVision plate reader, and the inhibition rate was calculated.
# Inhibition rate %)=[(X−Min)/(Max−Min)]×100%
# X is the fluorescence value ratio of “665/615” of the test compound; Min is the average value of “665/615” of the DMSO blank control; Max is the average value of “665/615” of the 10 μM SRC.
row,SMILES,IC50 [nM]
1,CCC(F)(F)OC[C@@H]1C[C@H](Oc2ccc(C(F)(F)F)cc2)CN1c1ncc(C(=O)N[C@@H](CO)c2ccc(S(=O)(=O)CC)cn2)cn1 [Example 75],12.1
2,"CCS(=O)(=O)c1ccc([C@H](CO)NC(=O)c2cnc(N3CC[C@H](Oc4ccc(C(F)(F)F)cc4)C3)c(F)c2)cc1 [Example 81, N—((R)-1-(4-(ethylsulfonyl)phenyl)-2-hydroxyethyl)-5-fluoro-6-((S)-3-(4-(trifluoromethyl)phenoxy)pyrrolidin-1-yl)nicotinamide]",78
3,"CCS(=O)(=O)c1ccc(CNC(=O)c2ccc(N3C[C@H](Oc4ccc(C(F)(F)F)cc4)C[C@H]3COC)cc2)cc1 [Example 25, N-(4-(ethylsulfonyl)benzyl)-4-((2S,4R)-2-(methoxymethyl)-4-(4-(trifluoromethyl)phenoxy)pyrrolidin-1-yl)benzamide]",20
4,CCS(=O)(=O)c1ccc([C@H](CO)NC(=O)c2cnc(N3C[C@@H](Oc4ccc(C(F)(F)F)cc4)C[C@H]3COC(F)F)nc2)cc1 [Example 64],3
5,"CCS(=O)(=O)c1ccc([C@H](CO)NC(=O)c2ccc(N3C[C@H](Oc4ccc(C(F)(F)F)cc4)C[C@H]3COC)cc2)cc1 [Example 26, N—((R)-1-(4-(ethylsulfonyl)phenyl)-2-hydroxyethyl)-4-((2S,4R)-2-(methoxymethyl)-4-(4-(trifluoromethyl)phenoxy)pyrrolidin-1-yl)benzamide]",10
6,CCS(=O)(=O)c1ccc([C@H](CCO)NC(=O)c2cnc(N3C[C@@H](Oc4ccc(OC(F)(F)F)cc4)C[C@H]3COC(F)F)c(F)c2)cc1 [Example 116],10
7,CCC(F)(F)OC[C@@H]1C[C@H](Oc2ccc(C(F)(F)F)cc2)CN1c1ccc(C(=O)N[C@@H](CO)c2ccc(S(=O)(=O)CC)cc2)cn1 [Example 55],9
8,"CCS(=O)(=O)c1ccc(CC(=O)Nc2ccc(C3CN(Cc4ccc(C(F)(F)F)cc4)CC3C)cc2)cc1 (centres unmarked) [Example 5, 2-(4-(Ethylsulfonyl)phenyl)-N-(4-(4-methyl-1-(4-(trifluoromethyl)benzyl)pyrrolidin-3-yl)phenyl)acetamide]",47
9,CCS(=O)(=O)c1ccc([C@H](CO)NC(=O)c2ccc(N3C[C@@H](Oc4ccc(C(F)(F)F)cc4)C[C@H]3COC(F)F)cc2OC)cc1 [Example 90],30
10,"CCS(=O)(=O)c1ccc(CNC(=O)c2cnc(N3C[C@@H](Oc4ccc(Cl)cn4)C[C@H]3COC(F)F)c(F)c2)nc1 [Example 113, 6-((2S,4S)-4-((5-chloropyridin-2-yl)oxy)-2-((difluoromethoxy)methyl)pyrrolidin-1-yl)-N-((5-(ethylsulfonyl)pyridin-2-yl)methyl)-5-fluoronicotinamide]",6.2
11,CCS(=O)(=O)c1ccc([C@H](CO)NC(=O)c2ccc(N3C[C@@H](Oc4ccc(C(F)(F)F)cc4)C[C@H]3COC(F)F)cc2)nc1 [Example 69],4
12,CCS(=O)(=O)c1ccc([C@H](CO)NC(=O)c2ccc(N3C[C@@H](Oc4ccc(C(F)(F)F)cc4)C[C@H]3COC(F)F)nc2OC)cc1 [Example 88],30
13,"CCS(=O)(=O)c1ccc([C@H](CO)NC(=O)c2cnc(N3C[C@H](Oc4ccc(C(F)(F)F)cc4)C[C@H]3COCCF)nc2)cc1 [Example 59, N—((R)-1-(4-(ethylsulfonyl)phenyl)-2-hydroxyethyl)-2-((2S,4R)-2-((2-fluoroethoxy)methyl)-4-(4-(trifluoromethyl)phenoxy)pyrrolidin-1-yl)pyrimidine-5-carboxamide]",28
14,"CCS(=O)(=O)c1ccc(CC(=O)Nc2ccc(N3CCC(Cc4ccc(C(F)(F)F)cc4)C3)cc2)cc1 (centres unmarked) [Example 1, 2-(4-(Ethylsulfonyl)phenyl)-N-(4-(3-(4-(trifluoromethyl)benzyl)pyrrolidin-1-yl)phenyl) acetamide]",12
